Data reported in patent US10696949B2, “Systems and methods for canine liver modeling” (Hepregen Corporation, priority 2015, dated 2020).
Read-outs that look alike come from different tables or passages of the source.

Experiments:
Assay type in all cases: cell-based
dog hepatocytes = assay: Dog hepatocyte hypertrophy in standard HepatoPac micropatterned co-culture
Protocol: In order to create micropatterned co-cultures, hepatocytes were seeded in serum-free hepatocyte medium on collagen-patterned 24-well cell culture plates, resulting in a hepatocyte pattern due to selective cell adhesion. The cells were washed with media 2 to 6 hours later to remove unattached cells and incubated with serum supplemented hepatocyte medium overnight. 3T3-J2 or BJ fibroblasts were seeded in serum-supplemented fibroblast medium 12-24 hours later to create co-cultures. Culture medium was replaced with hepatocyte medium 24 hours after fibroblast seeding and subsequently replaced every one to two days. Spent media was stored for biochemical assays.
(§1) Hepatocyte growth factor (HGF) was implicated as one of the contributing factors causing dog hepatocyte hypertrophy and motility in the co-culture (data not shown). […] In summation, chemical inhibition (for example, via dexamethasone and TGFB2) of HGF secretion in the standard HepatoPac™ format is sufficient to abrogate hepatocyte hypertrophy.

HGF = HGF secretion in standard HepatoPac co-culture under chemical inhibition; details: standard HepatoPac format
Text: as §1

hepatocytes = assay: Hepatocyte hypertrophy in sandwich cultures with soluble HGF; details: soluble HGF alone, data not shown
Text: as §1

Compound | dog hepatocyte hypertrophy (dog hepatocytes) | HGF level (secretion) (HGF) | dog hepatocyte hypertrophy (dog hepatocytes; standard HepatoPac format, 3T3-J2 stromal cells) | hepatocyte hypertrophy (hepatocytes)
C[C@H](CCC(=O)O)[C@H]1CC[C@H]2[C@@H]3[C@@H](O)C[C@@H]4C[C@H](O)CC[C@]4(C)[C@H]3CC[C@]12C [UDCA] | decreased dog hepatocyte hypertrophy | reduction in HGF |  | 
C[C@@H]1C[C@H]2[C@@H]3CCC4=CC(=O)C=C[C@]4(C)[C@@]3(F)[C@@H](O)C[C@]2(C)[C@@]1(O)C(=O)CO [dexamethasone] | diminished hypertrophy |  |  | 
O=C1c2ccccc2-n2c1nc1ccccc1c2=O [tryptanthrin] |  | reduction in HGF | decreased dog hepatocyte hypertrophy | 
Soluble human HGF: Hepatocyte growth factor, soluble human protein added to sandwich cultures |  |  |  | did not result in hepatocyte hypertrophy
TGFB2: HGF-inhibiting agent; known chemical inhibitor of HGF secretion | diminished hypertrophy | HGF knockdown |  | 
